# Measurements as given in patent publication US11421145B2, “Oil recovery methods using a formulation containing an unsaturated zwitterionic surfactant and a polymer” (King Fahd University of Petroleum and Minerals, priority 2019, dated 2022).
# Legend:
# Type in all cases: physicochemical
# [1] = Short-term thermal stability by thermogravimetric analysis (TGA)
# Procedure: The short-term thermal stability of the unsaturated surfactant was assessed using thermogravimetric analysis (TGA). The thermal stability for a longer period (2 weeks) was determined by FTIR and NMR. The synthesized unsaturated surfactant was dried and heated at 10° C./min in an SDT-Q600 instrument (TA Instruments) from room temperature to 600° C. under nitrogen atmosphere. The thermal stability for a longer period was determined by aging 1 wt % aqueous solution of the unsaturated surfactant at 90° C. for 15 days. FTIR, ^13C NMR, and ^1H NMR were used to identify the structural changes in the unsaturated surfactant after aging. A Nicolet 6700 spectrometer was used for FTIR analysis of the unsaturated surfactant, while a JEOL 500 MHz spectrometer was used for obtaining the NMR spectra.
# Solubility and compatibility of the surfactant in the reservoir and injection brine are the primary considerations for further evaluation of the unsaturated surfactant for EOR application. If the surfactant is not soluble in the seawater and formation brine, it can be rejected at the initial stage. […] After the compatibility test with SW and FW, the short-term thermal stability of the synthesized unsaturated surfactant was evaluated using TGA analysis. […] Only 3% weight loss was observed up to 200° C., which was mainly associated with solvent and water evaporation. […]
# [2] = Surface tension by pendant-drop technique (CMC and surface properties)
# Procedure: The surface tension of the unsaturated surfactant in SW and FW at different temperatures was analyzed using a Biolin Scientific Attension instrument. The pendant-drop technique was used to measure the surface tension at 30° C. and 60° C. Other surface properties such as CMC, surface tension at CMC (γcmc), surfactant ability at lower surface tension (πcmc), maximum surface access (Γmax), and minimum area per molecule (Amin) were also obtained from the surface tension data. These surface properties were calculated using Eqs. 1-3,
# where γ0 is the surface tension of the brine (FW or SW), NA is the Avogadro number, dγ/dlnC is the slope below CMC in the surface tension plot, C is the surfactant concentration in brine, T is temperature, R is the gas constant, and n=1 for zwitterionic surfactants [Wang, Y., Zhang, Y., Liu, X., Wang, J., Wei, L., & Feng, Y. (2014) Effect of a hydrophilic head group on Krafft temperature, surface activities and rheological behaviors of Erucyl Amidobetaines. Journal of Surfactants and Detergents, 17:295-301—incorporated herein by reference]. The interfacial tension between crude oil and water was measured using a spinning drop tensiometer from Kruss (SITE 100). All the reported points are the average equilibrium values.
# Variations in the surface tension of the unsaturated surfactant with concentration at different temperatures and salinities are summarized in FIG. 7. […] The CMC and surface tension corresponding to the CMC (γcmc) were estimated from the breakpoint in surface tension versus concentration plots. […] A similar reduction in CMC with increasing NaCl concentration was reported for the alkyl amidosulfobetaine surfactant [Feng, Y., & Chu, Z. (2016) Correlating surface activity with structural and environmental parameters for alkylamidosulfobetaine surfactants. Colloid and Polymer Science, 294:957-963, incorporated herein by reference in its entirety]. However, in this disclosure, the reduction in the CMC was observed when SW was replaced with FW. The reduction in the CMC could be associated with the salting-out effect of the unsaturated surfactant hydrophobic tail, which got enhanced by increasing the salinity [Feng, Y., & Chu, Z. (2016) Correlating surface activity with structural and environmental parameters for alkylamidosulfobetaine surfactants. Colloid and Polymer Science, 294:957-963, incorporated herein by reference in its entirety].
# [3] = Solubility and compatibility in seawater (SW) and formation water (FW)
# Procedure: Synthetic seawater (SW) and formation water (FW) were prepared using NaCl, Na2SO4, NaHCO3, CaCl2, and MgCl2. All the salts were obtained from Sigma-Aldrich, USA.
# Solubility and compatibility of the surfactant in the reservoir and injection brine are the primary considerations for further evaluation of the unsaturated surfactant for EOR application. If the surfactant is not soluble in the seawater and formation brine, it can be rejected at the initial stage. […] After the compatibility test with SW and FW, the short-term thermal stability of the synthesized unsaturated surfactant was evaluated using TGA analysis. […] Only 3% weight loss was observed up to 200° C., which was mainly associated with solvent and water evaporation. […] TGA results helped to identify and eliminate the surfactants that had lower decomposition temperatures. However, for real field applications, long-term thermal stability of the surfactant must be considered, as the surfactant residence time in the reservoir could vary from a few days to a few months.
compound,measurement,setting,value
"CCCCCCCC/C=C\CCCCCCCC(=O)NCCC[N+](C)(C)CCCS(=O)(=O)[O-] [unsaturated surfactant, 3-(N-oleamidopropyl-N,N-dimethylammonium) propane sulfonate]",short-range thermal stability (TGA),[1],excellent short-range thermal stability
same,weight loss (TGA),"[1]; up to 200° C., heating rate 10° C. min^−1, nitrogen",3%
same,Amin,"[2]; FW, 60 °C",0.28 nm^2
same,CMC,"[2]; FW, 60 °C",1.53 × × 10^−4 mol L^−1
same,Γmax × 10^6,"[2]; FW, 60 °C",5.88 mol m^−2
same,γcmc,"[2]; FW, 60 °C",33.55 mN m^−1
same,πcmc,"[2]; FW, 60 °C",38.04 mN m^−1
same,Amin,"[2]; SW, 30 °C",0.22 nm^2
same,CMC,"[2]; SW, 30 °C",1.02 × × 10^−4 mol L^−1
same,Γmax × 10^6,"[2]; SW, 30 °C",7.27 mol m^−2
same,γcmc,"[2]; SW, 30 °C",30.23 mN m^−1
same,πcmc,"[2]; SW, 30 °C",41.76 mN m^−1
same,Amin,"[2]; SW, 60 °C",0.29 nm^2
same,CMC,"[2]; SW, 60 °C",2.05 × × 10^−4 mol L^−1
same,Γmax × 10^6,"[2]; SW, 60 °C",5.60 mol m^−2
same,γcmc,"[2]; SW, 60 °C",31.03 mN m^−1
same,πcmc,"[2]; SW, 60 °C",40.96 mN m^−1
same,CMC expressed as surfactant concentration,[2]; corresponding to 1.02×10^−4 mol L^−1,0.005%
same,CMC,[2]; in FW (summary b150),0.000205 mol/L
same,CMC,[2]; in SW (summary b150),0.000102 mol/L
same,CMC,[2]; in SW and FW (as worded),0.000102 mol/L
same,precipitation or phase separation on dissolution,"[3]; SW (57,643 ppm) and FW (213,734 ppm)",no precipitation or phase separation
same,solubility in SW and FW,[3]; seawater and formation water,excellent solubility
